# Measurements as given in patent US12590091B2, “1H-pyrrolo[3,2-C]pyridine and 1H-pyrrolo[2,3-C]pyridine derivatives as TLR9 inhibitors for the treatment of fibrosis” (BRISTOL-MYERS SQUIBB COMPANY, priority 2020, dated 2026).
# Assays:
# human TLR9 = biological target: T1, human TLR9 (Homo sapiens, UniProt Q9NR96); test: TLR9 inhibition reporter assay (HEK-Blue cells, SEAP reporter); type: cell-based; conditions: HEK-Blue cells overexpressing human TLR9, stimulated with ODN2006 5 nM, 22 hour incubation
# T1 construct: host or cells: HEK-Blue cells
# T1 sequence (Q9NR96 26-1032): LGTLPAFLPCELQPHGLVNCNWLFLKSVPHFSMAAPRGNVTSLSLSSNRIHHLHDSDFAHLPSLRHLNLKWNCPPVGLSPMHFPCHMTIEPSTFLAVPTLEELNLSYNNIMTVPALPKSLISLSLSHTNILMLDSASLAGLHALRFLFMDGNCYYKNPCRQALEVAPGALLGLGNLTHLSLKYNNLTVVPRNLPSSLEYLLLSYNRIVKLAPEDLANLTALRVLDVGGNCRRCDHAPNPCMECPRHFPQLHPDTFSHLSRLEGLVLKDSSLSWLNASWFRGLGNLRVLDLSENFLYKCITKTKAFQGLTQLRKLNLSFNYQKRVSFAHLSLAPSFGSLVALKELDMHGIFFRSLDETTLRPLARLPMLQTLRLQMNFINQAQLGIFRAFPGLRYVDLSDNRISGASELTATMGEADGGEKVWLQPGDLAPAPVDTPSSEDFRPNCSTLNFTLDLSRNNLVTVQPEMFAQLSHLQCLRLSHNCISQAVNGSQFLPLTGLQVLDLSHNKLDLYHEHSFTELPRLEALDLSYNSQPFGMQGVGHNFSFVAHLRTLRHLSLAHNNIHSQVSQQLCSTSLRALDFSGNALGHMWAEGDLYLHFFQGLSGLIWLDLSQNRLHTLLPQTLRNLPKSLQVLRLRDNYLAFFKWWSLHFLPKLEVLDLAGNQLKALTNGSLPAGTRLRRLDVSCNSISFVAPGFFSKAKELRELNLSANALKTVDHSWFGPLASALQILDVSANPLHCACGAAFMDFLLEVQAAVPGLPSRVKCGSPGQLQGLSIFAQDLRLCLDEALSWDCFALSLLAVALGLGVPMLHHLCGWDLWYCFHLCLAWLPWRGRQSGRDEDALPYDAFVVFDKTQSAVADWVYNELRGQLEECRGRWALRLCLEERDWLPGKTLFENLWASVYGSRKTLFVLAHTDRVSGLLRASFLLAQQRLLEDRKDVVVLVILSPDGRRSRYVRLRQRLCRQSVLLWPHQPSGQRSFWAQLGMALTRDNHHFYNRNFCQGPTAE
# Method in brief: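 HEK-Blue cells overexpressing human TLR9 (25,000 cells/well), NF-κB/AP-1-driven SEAP reporter. Compounds at 0.05 nM–50 μM final, 22 h at 37 °C, 5% CO2 with agonist. SEAP detected with HEK-Blue Detection medium; % inhibition versus agonist plus DMSO and known-inhibitor wells.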
# human TLR8 = biological target: T2, human TLR8 (Homo sapiens, UniProt Q9NR97); test: TLR8 inhibition reporter assay (HEK-Blue cells, SEAP reporter); type: cell-based; conditions: HEK-Blue cells overexpressing human TLR8, stimulated with R848 15.9 μM, 22 hour incubation
# T2 construct: host or cells: HEK-Blue cells
# T2 sequence (Q9NR97 27-1041): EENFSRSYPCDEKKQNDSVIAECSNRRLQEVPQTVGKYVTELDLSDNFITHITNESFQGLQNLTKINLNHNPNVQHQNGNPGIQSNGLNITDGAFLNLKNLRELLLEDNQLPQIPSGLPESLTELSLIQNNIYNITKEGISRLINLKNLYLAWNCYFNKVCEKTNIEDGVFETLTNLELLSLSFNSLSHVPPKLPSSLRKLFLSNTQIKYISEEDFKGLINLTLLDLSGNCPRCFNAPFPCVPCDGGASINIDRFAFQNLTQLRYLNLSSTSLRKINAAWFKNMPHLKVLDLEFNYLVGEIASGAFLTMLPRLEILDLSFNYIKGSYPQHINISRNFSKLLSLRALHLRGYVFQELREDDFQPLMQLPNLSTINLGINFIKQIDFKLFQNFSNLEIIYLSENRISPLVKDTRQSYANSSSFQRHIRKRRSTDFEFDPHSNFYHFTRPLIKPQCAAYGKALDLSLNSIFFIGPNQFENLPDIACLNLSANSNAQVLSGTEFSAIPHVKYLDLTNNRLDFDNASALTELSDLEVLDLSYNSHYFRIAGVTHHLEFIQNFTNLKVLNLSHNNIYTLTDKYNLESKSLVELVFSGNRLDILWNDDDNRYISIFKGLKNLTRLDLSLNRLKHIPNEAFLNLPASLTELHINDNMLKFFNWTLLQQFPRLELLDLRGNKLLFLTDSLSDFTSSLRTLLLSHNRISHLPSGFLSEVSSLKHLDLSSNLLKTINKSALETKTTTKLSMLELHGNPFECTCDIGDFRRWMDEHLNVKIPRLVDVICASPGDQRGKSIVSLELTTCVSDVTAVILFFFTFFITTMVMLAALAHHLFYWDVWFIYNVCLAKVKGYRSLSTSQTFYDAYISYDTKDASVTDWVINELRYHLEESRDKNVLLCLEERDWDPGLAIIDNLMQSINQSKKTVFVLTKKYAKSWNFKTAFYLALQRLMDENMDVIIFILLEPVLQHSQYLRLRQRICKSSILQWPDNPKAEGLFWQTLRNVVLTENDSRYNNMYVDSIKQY
# Protocol: TLR7/8/9 Inhibition Reporter Assays
# HEK-Blue™-cells (Invivogen) overexpressing human TLR7, TLR8 or TLR9 receptors were used for screening inhibitors of these receptors using an inducible SEAP (secreted embryonic alkaline phosphatase) reporter gene under the control of the IFN-β minimal promoter fused to five NF-κB and AP-1-binding sites. Briefly, cells are seeded into Greiner 384 well plates (15000 cells per well for TLR7, 20,000 for TLR8 and 25,000 for TLR9) and then treated with test compounds in DMSO to yield a final dose response concentration range of 0.05 nM-50 μM. After a 30 minute compound pre-treatment at room temperature, the cells are then stimulated with a TLR7 ligand (gardiquimod at a final concentration of 7.5 μM), TLR8 ligand (R848 at a final concentration of 15.9 μM) or TLR9 ligand (ODN2006 at a final concentration of 5 nM) to activate NF-κB and AP-1 which induce the production of SEAP. After a 22 hour incubation at 37° C., 5% CO2, SEAP levels are determined with the addition of HEK-Blue™ Detection reagent (Invivogen), a cell culture medium that allows for detection of SEAP, according to manufacturer's specifications. The percent inhibition is determined as the % reduction in the HEK-Blue signal present in wells treated with agonist plus DMSO alone compared to wells treated with a known inhibitor.
Compound,IC50 (human TLR9),IC50 (human TLR8)
"COc1ccc(-c2c(C)[nH]c3cnc(C4CCN(C(=O)CN5CCCC5)CC4)cc23)cc1OC [Example 21, 1-(4-(3-(3,4-dimethoxyphenyl)-2-methyl-1H-pyrrolo[2,3-c]pyridin-5-yl)piperidin-1-yl)-2-(pyrrolidin-1-yl)ethan-1-one]",603 nM,> 50000 nM
"COc1ccc(-c2c(C)[nH]c3cnc(C4CCN(C(=O)CN(C)C)CC4)cc23)cc1OC [Example 22, 1-(4-(3-(3,4-dimethoxyphenyl)-2-methyl-1H-pyrrolo[2,3-c]pyridin-5-yl)piperidin-1-yl)-2-(dimethylamino)ethan-1-one]",1570 nM,> 50000 nM
"COc1ccc(-c2c(C)[nH]c3cnc(C4CCN(C(=O)CCN5CCCC5)CC4)cc23)cc1OC [Example 23, 1-(4-(3-(3,4-dimethoxyphenyl)-2-methyl-1H-pyrrolo[2,3-c]pyridin-5-yl)piperidin-1-yl)-3-(pyrrolidin-1-yl)propan-1-one]",1110 nM,> 50000 nM
"COc1ccc(-c2cc3cnc(C4CCN(C(=O)CN5CCCCC5)CC4)cc3n2C)cc1OC [Example 25, 1-(4-(2-(3,4-dimethoxyphenyl)-1-methyl-1H-pyrrolo[3,2-c]pyridin-6-yl)piperidin-1-yl)-2-(piperidin-1-yl)ethan-1-one]",197 nM,> 50000 nM
"COc1ccc(-c2cc3cnc(C4CCN(Cc5ccc(C(F)(F)F)nc5)CC4)cc3n2C)cc1OC [Example 28, 2-(3,4-dimethoxyphenyl)-1-methyl-6-(1-((6-(trifluoromethyl)pyridin-3-yl)methyl)piperidin-4-yl)-1H-pyrrolo[3,2-c]pyridine]",269 nM,20500 nM
"COc1ccc(-c2cc3cnc(-c4ccc(N5CCN(C(=O)c6ccccc6)CC5)cc4)cc3n2C)cc1OC [Example 29, (4-(4-(2-(3,4-dimethoxyphenyl)-1-methyl-1H-pyrrolo[3,2-c]pyridin-6-yl)phenyl)piperazin-1-yl)(phenyl)methanone]",399 nM,8200 nM
"COc1ccc(-c2cc3cnc(-c4ccc(N5CCN(C(C)C)CC5)nc4)cc3n2C)cc1OC [Example 31, 2-(3,4-dimethoxyphenyl)-6-(6-(4-isopropylpiperazin-1-yl)pyridin-3-yl)-1-methyl-1H-pyrrolo[3,2-c]pyridine]",72 nM,1700 nM
"COc1ccc(-c2c(C)n(C)c3cnc(-c4ccc(N5CCN(C(C)C)CC5)cc4)cc23)cc1OC [Example 32, 3-(3,4-dimethoxyphenyl)-5-(4-(4-isopropylpiperazin-1-yl)phenyl)-1,2-dimethyl-1H-pyrrolo[2,3-c]pyridine]",170 nM,> 50000 nM
"Cc1nc(-c2ccc(N3CCN(C4CCOCC4)CC3)cc2)cc2c1cc(-c1ccc(S(C)(=O)=O)cc1)n2C [Example 35, 1,4-dimethyl-2-(4-(methylsulfonyl)phenyl)-6-(4-(4-(tetrahydro-2H-pyran-4-yl)piperazin-1-yl)phenyl)-1H-pyrrolo[3,2-c]pyridine]",710 nM,> 25000 nM

# Compounds with a lower IC50 (human TLR9), results first:
IC50 (human TLR9),IC50 (human TLR8),Compound
59 nM,3800 nM,"COc1ccc(-c2cc3cnc(-c4ccc(N5CCN(C(C)C)CC5)cc4)cc3n2C)cc1OC [Example 24, 2-(3,4-dimethoxyphenyl)-6-(4-(4-isopropylpiperazin-1-yl)phenyl)-1-methyl-1H-pyrrolo[3,2-c]pyridine]"
9 nM,1200 nM,"COc1ccc(-c2cc3cnc(C4CCN(C5CCN(C(=O)c6ccccc6)CC5)CC4)cc3n2C)cc1OC [Example 26, (4-(2-(3,4-dimethoxyphenyl)-1-methyl-1H-pyrrolo[3,2-c]pyridin-6-yl)-[1,4′-bipiperidin]-1′-yl)(phenyl)methanone]"
45 nM,1500 nM,"COc1ccc(-c2cc3cnc(-c4ccc(N5CCN(C)CC5)cc4)cc3n2C)cc1OC [Example 27, 2-(3,4-dimethoxyphenyl)-1-methyl-6-(4-(4-methylpiperazin-1-yl)phenyl)-1H-pyrrolo[3,2-c]pyridine]"
27 nM,> 50000 nM,"COc1ccc(-c2c(C)n(C)c3cnc(-c4ccc(N5CCN(CCC(C)(C)O)CC5)cc4)cc23)cc1OC [Example 33, 4-(4-(4-(3-(3,4-dimethoxyphenyl)-1,2-dimethyl-1H-pyrrolo[2,3-c]pyridin-5-yl)phenyl)piperazin-1-yl)-2-methylbutan-2-ol]"
10 nM,> 50000 nM,"Cc1nc(-c2ccc(N3CCN(CC(C)C)CC3)cc2)cc2c1cc(-c1ccc(S(C)(=O)=O)cc1)n2C [Example 34, 6-(4-(4-isobutylpiperazin-1-yl)phenyl)-1,4-dimethyl-2-(4-(methylsulfonyl)phenyl)-1H-pyrrolo[3,2-c]pyridine]"
59 nM,> 25000 nM,"Cc1nc(-c2ccc(N3CCN(CCCO)CC3)cc2)cc2c1cc(-c1ccc(S(C)(=O)=O)cc1)n2C [Example 36, 3-(4-(4-(1,4-dimethyl-2-(4-(methylsulfonyl)phenyl)-1H-pyrrolo[3,2-c]pyridin-6-yl)phenyl)piperazin-1-yl)propan-1-ol]"
57 nM,> 25000 nM,"Cc1nc(-c2ccc(N3CCN(C4CCOC4)CC3)cc2)cc2c1cc(-c1ccc(S(C)(=O)=O)cc1)n2C (stereo not shown) [Example 37, 1,4-dimethyl-2-(4-(methylsulfonyl)phenyl)-6-(4-(4-(tetrahydrofuran-3-yl)piperazin-1-yl)phenyl)-1H-pyrrolo[3,2-c]pyridine]"
56 nM,11800 nM,"COCCN1CCN(c2ccc(-c3cc4c(cc(-c5ccc(S(C)(=O)=O)cc5)n4C)c(C)n3)cc2)CC1 [Example 38, 6-(4-(4-(2-methoxyethyl)piperazin-1-yl)phenyl)-1,4-dimethyl-2-(4-(methylsulfonyl)phenyl)-1H-pyrrolo[3,2-c]pyridine]"
